Reference: US9078442B2, “Herbicidally and fungicidally active 3-phenylisoxazoline-5-carboxamides and 3-phenylisoxazoline-5-thioamides” (BAYER INTELLECTUAL PROPERTY GMBH, priority 2011, dated 2015)

Experiments:
[1] = test system: Mycosphaerella graminicola; test: In vivo test Mycosphaerella graminicola (wheat); details: Mycosphaerella graminicola on wheat, evaluation 21-28 days after inoculation
Experimental: Wheat plants (cultivar: (Scipion) are cultivated in 50/50 peat pozzolan substrate at 12° C. and sprayed at the 1-leaf stage with the active compound preparation as given in Example A. After 24 hours, the plants are sprayed with a spore suspension of Mycosphaerella graminicola (500 000 spores/ml).

Peronospora parasitica = test: In vivo test Peronospora parasitica (downy mildew on cabbage), protective; details: evaluation 5 days after infection
Experimental: In vivo test Peronospora parasitica (downy mildew on cabbage) To prepare an appropriate active compound formulation, the active compound is mixed with acetone/Tween/DMSO and the mixture is diluted with water to the desired concentration. Cabbage plants are cultivated in 50/50 peat/pozzolan soil in small pots at 18-20° C. and sprayed at the cotyledon stage at the respective stated application rates to test for protective activity. Control plants were treated in the same manner, but using an aqueous solution without any active compounds. 24 hours after the spraying, the plants were sprayed with a spore suspension of Peronospora parasitica (50 000 spores/ml). The plants were placed in a cabin at 20° C. in a humid atmosphere for 5 days.

Botrytis cinerea = test: In vivo test Botrytis cinerea (gray mold on cucumbers); details: Botrytis cinerea on cucumber, evaluation 5-7 days after infection
Experimental: Cucumber plants (Vert petit de Paris) are cultivated in 50/50 peat pozzolan substrate at 20-25° C. and sprayed at the Z16 stage with the active compound preparation given in Example 1. After 24 hours, the upper sides of the leaves of the plants are sprayed with a spore suspension of Botrytis cinerea (150 000 spores/ml). The spores of a 15-day old culture are collected and suspended in a nutrient solution consisting of • 20 g/l of gelatin; • 50 g/l of D-fructose; • 2 g/l of NH4NO3; • 1 g/L of KH2PO4. The inoculated cucumber plants are placed at 15-11° C. (day/night) and at 80% relative atmospheric humidity for 5-7 days.

SMILES	Activity [%] (efficacy) ([1]; application rate 500 g/ha)	Activity [%] (efficacy) (Peronospora parasitica; application rate 500 g/ha)	further results
CCOC(=O)C(C)CNC(=O)C1(C)CC(c2cc(Cl)cc(Cl)c2)=NO1 (stereo not shown) [Example 6.480]	88	–	–
CC(C)n1cc(CNC(=O)C2(C)CC(c3cc(F)cc(F)c3)=NO2)c(Cl)n1 (stereo not shown) [Example 1.340]	88	97	–
CC1(C(=O)NCc2ccccc2C(=O)O)CC(c2cc(Cl)cc(Cl)c2)=NO1 (stereo not shown) [Example 1.315]	100	–	–
CC(C)n1cc(CNC(=O)C2(C)CC(c3cc(Cl)cc(Cl)c3)=NO2)c(Cl)n1 (stereo not shown) [Example 1.343]	92	99	–
O=C(NC1CC1)C1(C(F)(F)F)CC(c2cc(Cl)cc(Cl)c2)=NO1 (stereo not shown) [Example 8.052]	–	–	Activity [%] (efficacy) (Peronospora parasitica; application rate 1200 g/ha): 100%
Cc1cc(Cl)cc(C2=NOC(C)(C(=O)NC3CC3)C2)c1 (stereo not shown) [Example 6.072]	98	–	–
CCOP(=O)(CNC(=O)C1(C)CC(c2cc(Cl)cc(Cl)c2)=NO1)OCC (stereo not shown) [Example 6.433]	–	100	–
Cc1c(CNC(=O)C2(C)CC(c3cc(Cl)cc(Cl)c3)=NO2)cnn1C (stereo not shown) [Example 1.138]	75	98	–
Cc1nn(C)c(C)c1CNC(=O)C1(C)CC(c2cc(Cl)cc(Cl)c2)=NO1 (stereo not shown) [Example 1.108]	–	100	–
CCC1(C(=O)Nc2cc(C)nn2C)CC(c2cc(Cl)cc(Cl)c2)=NO1 (stereo not shown) [Example 2.003]	–	–	Activity [%] (efficacy) (Peronospora parasitica; application rate 1200 g/ha): 90%
CCOC(=O)CCNC(=O)C1(C)CC(c2cc(Cl)cc(Cl)c2)=NO1 (stereo not shown) [Example 6.566]	98	–	–
CNC(=O)C1(C(F)(F)F)CC(c2cc(Cl)cc(Cl)c2)=NO1 (stereo not shown) [Example 8.025]	–	100	–
CCOCCCNC(=O)C1(C)CC(c2cc(Cl)cc(Cl)c2)=NO1 (stereo not shown) [Example 6.681]	–	–	Activity [%] (efficacy) (Peronospora parasitica; application rate 1200 g/ha): 97%
Cc1cc(Cl)cc(C2=NOC(C)(C(=O)NC(C)C)C2)c1 (stereo not shown) [Example 6.192]	97	96	–
CC(C)NC(=O)C1(C)CC(c2cc(Br)cc(C(F)(F)F)c2)=NO1 (stereo not shown) [Example 6.184]	100	–	–
CC1(C(=O)Nc2cccc(CC(=O)O)c2)CC(c2cc(Cl)cc(Cl)c2)=NO1 (stereo not shown) [Example 1.036]	73	–	–
Cc1cc(CNC(=O)C2(C)CC(c3cc(F)cc(F)c3)=NO2)n(C)n1 (stereo not shown) [Example 1.120]	–	99	–
CCn1cc(CNC(=O)C2(COC)CC(c3cc(Cl)cc(Cl)c3)=NO2)c(C)n1 (stereo not shown) [Example 5.029]	–	87	–
CC1(C(=O)NCC2CCCO2)CC(c2cc(Cl)cc(Cl)c2)=NO1 (mixture of isomers) [Example 6.470]	100	71	–
CC(C)NC(=O)C1(C2CC2)CC(c2cc(Cl)cc(Cl)c2)=NO1 (stereo not shown) [Example 10.032]	–	–	Activity [%] (efficacy) (Peronospora parasitica; application rate 1200 g/ha): 96%
CC1(C(=O)NCCCn2cccn2)CC(c2cc(Cl)cc(Cl)c2)=NO1 (stereo not shown) [Example 1.903]	97	85	–
CCn1cc(NC(=O)C2(C)CC(c3cc(Cl)cc(Cl)c3)=NO2)c(C)n1 (stereo not shown) [Example 1.017]	88	–	–
COC(=O)c1ccc(NC(=O)C2(C)CC(c3cc(Cl)cc(Cl)c3)=NO2)cc1 (stereo not shown) [Example 1.060]	–	–	Activity [%] (efficacy) (Botrytis cinerea; application rate 500 g/ha): 100%
Cn1nccc1CNC(=O)C1(C)CC(c2cc(Cl)cc(Cl)c2)=NO1 (stereo not shown) [Example 1.291]	–	–	Activity [%] (efficacy) (Peronospora parasitica; application rate 1200 g/ha): 88%
CC1(C(=O)NCc2nc(C(F)(F)F)cs2)CC(c2cc(Cl)cc(Cl)c2)=NO1 (stereo not shown) [Example 1.379]	–	96	–
CCOC(=O)Cc1ccc(NC(=O)C2(C)CC(c3cc(Cl)cc(Cl)c3)=NO2)cc1 (stereo not shown) [Example 1.057]	91	–	–

SMILES	Activity [%] (efficacy) ([1]; application rate 500 g/ha)	Activity [%] (efficacy) (Peronospora parasitica; application rate 500 g/ha)	further results
CC1(C(=O)NCC2CCCCC2)CC(c2cc(Cl)cc(Cl)c2)=NO1 (stereo not shown) [Example 6.430]	81	–	–
COCC#CC(C)(C)NC(=O)C1(C)CC(c2cc(Cl)cc(Cl)c2)=NO1 (stereo not shown) [Example 6.115]	–	100	–
CC1(C(=O)NCCc2ccccn2)CC(c2cc(Cl)cc(Cl)c2)=NO1 (stereo not shown) [Example 1.676]	–	85	–
CC1(C(=O)Nc2ccc(C(=O)O)cc2)CC(c2cc(Cl)cc(Cl)c2)=NO1 (stereo not shown) [Example 1.064]	75	95	Activity [%] (efficacy) (Botrytis cinerea; application rate 500 g/ha): 100%
CCCn1cc(CNC(=O)C2(CC)CC(c3cc(Cl)cc(Cl)c3)=NO2)c(C)n1 (stereo not shown) [Example 2.257]	79	99	–
CCn1cc(CNC(=O)C2(C(F)(F)F)CC(c3cc(Cl)cc(Cl)c3)=NO2)c(C)n1 (stereo not shown) [Example 3.161]	–	100	–
CCn1cc(CNC(=O)C2(C)CC(c3cc(C(F)(F)F)cc(C(F)(F)F)c3)=NO2)c(C)n1 (stereo not shown) [Example 1.224]	95	99	–
CC1(C(=O)NCc2ccncc2)CC(c2cc(Cl)cc(Cl)c2)=NO1 (stereo not shown) [Example 1.458]	–	–	Activity [%] (efficacy) (Peronospora parasitica; application rate 1200 g/ha): 81%
CC(C)n1cc(CNC(=O)C2(C)CC(c3cccc(F)c3)=NO2)c(Cl)n1 (stereo not shown) [Example 1.341]	–	95	–
CCn1cc(CNC(=O)C2(C)CC(c3cc(C)cc(Cl)c3)=NO2)c(C)n1 (stereo not shown) [Example 1.181]	85	100	Activity [%] (efficacy) (Botrytis cinerea; application rate 500 g/ha): 70%
CCNC(=O)C1(C)CC(c2cc(C)cc(Cl)c2)=NO1 (stereo not shown) [Example 6.412]	100	–	–
Cc1cc(Cl)cc(C2=NOC(C)(C(=O)NCC(F)(F)F)C2)c1 (stereo not shown) [Example 6.386]	100	–	–
CC1(C(=O)NCc2ncccn2)CC(c2cc(Cl)cc(Cl)c2)=NO1 (stereo not shown) [Example 1.459]	100	–	–
CC(C)NC(=O)C1(C)CC(c2cc(F)cc(Cl)c2)=NO1 (stereo not shown) [Example 6.190]	–	–	Activity [%] (efficacy) (Peronospora parasitica; application rate 1200 g/ha): 100%
Cc1cc(CNC(=O)C2(C)CC(c3cc(Cl)cc(Cl)c3)=NO2)no1 (stereo not shown) [Example 1.421]	87	–	–
CCn1cc(CNC(=O)C2(C)CC(c3cc(Cl)cc(Cl)c3)=NO2)c(Cl)n1 (stereo not shown) [Example 1.339]	85	100	–
COc1cc(Cl)cc(C2=NOC(C)(C(=O)NC(C)C)C2)c1 (stereo not shown) [Example 6.191]	–	–	Activity [%] (efficacy) (Botrytis cinerea; application rate 1200 g/ha): 100%
CCn1cc(CNC(=O)C2(C(F)(F)F)CC(c3ccc(F)c(Cl)c3)=NO2)c(C)n1 (stereo not shown) [Example 3.170]	–	94	–
Cc1n[nH]cc1CNC(=O)C1(C)CC(c2cc(F)cc(F)c2)=NO1 (stereo not shown) [Example 1.363]	–	71	–
CCC1(C(=O)NC(C)C)CC(c2cc(Cl)cc(Cl)c2)=NO1 (stereo not shown) [Example 7.161]	–	–	Activity [%] (efficacy) (Botrytis cinerea; application rate 1200 g/ha): 100%; Activity [%] (efficacy) ([1]; application rate 1200 g/ha): 85%; Activity [%] (efficacy) (Peronospora parasitica; application rate 1200 g/ha): 97%
CC(C)(C)OC(=O)CCNC(=O)C1(C)CC(c2cc(Cl)cc(Cl)c2)=NO1 (stereo not shown) [Example 6.656]	98	92	–
CCn1cc(CNC(=O)C2(CC)CC(c3cc(Cl)cc(Cl)c3)=NO2)c(C)n1 (stereo not shown) [Example 2.163]	96	100	–
CC1(C(=O)NCc2nc(C3CC3)no2)CC(c2cc(Cl)cc(Cl)c2)=NO1 (stereo not shown) [Example 1.352]	–	83	–
CNC(=O)C1(C)CC(c2cc(Br)cc(Br)c2)=NO1 (stereo not shown) [Example 6.022]	98	–	–
COC(=O)Cc1cccc(NC(=O)C2(C)CC(c3cc(Cl)cc(Cl)c3)=NO2)c1 (stereo not shown) [Example 1.035]	91	–	Activity [%] (efficacy) (Botrytis cinerea; application rate 500 g/ha): 89%
Cc1nn(C)cc1CNC(=O)C1(C)CC(c2cc(Cl)cc(Cl)c2)=NO1 (stereo not shown) [Example 1.116]	–	100	–
